These results are taken from patent US6605424B1, “Method of detecting inhibitors of agonist-specific desensitization” (Duke University, priority 1989, dated 2003).

Assay [1] addresses T1, βAR kinase (Bos taurus, UniProt P21146).
T1 construct: βAR kinase was purified from bovine cerebral cortex; from tissue; host or cells: bovine cerebral cortex
T1 sequence (P21146 1-689): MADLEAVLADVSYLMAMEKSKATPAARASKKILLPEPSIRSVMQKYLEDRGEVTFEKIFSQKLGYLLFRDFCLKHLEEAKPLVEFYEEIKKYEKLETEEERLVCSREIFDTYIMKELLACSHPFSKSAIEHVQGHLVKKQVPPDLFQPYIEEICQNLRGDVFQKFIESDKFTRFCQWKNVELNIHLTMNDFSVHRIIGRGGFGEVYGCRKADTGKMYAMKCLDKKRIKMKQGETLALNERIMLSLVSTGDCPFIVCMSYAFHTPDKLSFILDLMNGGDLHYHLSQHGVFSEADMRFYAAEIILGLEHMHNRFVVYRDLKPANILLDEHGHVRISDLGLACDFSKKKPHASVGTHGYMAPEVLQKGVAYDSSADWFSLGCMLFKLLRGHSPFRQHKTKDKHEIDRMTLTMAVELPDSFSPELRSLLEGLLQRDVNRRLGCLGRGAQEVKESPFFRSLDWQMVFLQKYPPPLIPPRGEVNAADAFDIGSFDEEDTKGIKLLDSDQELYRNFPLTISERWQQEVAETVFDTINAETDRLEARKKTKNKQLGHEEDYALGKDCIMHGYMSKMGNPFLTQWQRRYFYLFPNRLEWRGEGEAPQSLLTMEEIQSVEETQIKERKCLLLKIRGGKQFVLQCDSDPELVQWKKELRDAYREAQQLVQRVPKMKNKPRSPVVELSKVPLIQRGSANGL
In words: Phosphorylation of rhodopsin (urea-treated rod outer segments) by βAR kinase. Format: biochemical, bovine. How it is done:
βAR kinase was purified from bovine cerebral cortex by modification of procedure of Benovic et al (J. Biol. Chem. (1987) 262:9026-9032). Briefly, 250 g of bovine cerebral cortex were homogenized with a Brinkmann tissue disrupter and centrifuged (40,000×g, 30 min). The supernatant was then precipitated with 13-26% ammonium sulfate. This material was initially chromatographed on a Ultrogel AcA34 column equilibrated with 5 mM Tris-HCl, pH 7.5, 2 mM EDTA, 10 μg/ml leupeptin, 5 μg/ml pepstatin, 10 μg/ml benzamidine, 0.2 mM phenylmethylsulfonyl fluoride (buffer A). The peak activity was diluted with an equal volume of buffer A containing 0.04% Triton X-100 before being applied to a DEAE-Sephacel column. Elution was accomplished with a 0-80 mM NaCl gradient in buffer A containing 0.02% Triton X-100. The peak activity was then applied to a CM-Fractogel column and eluted with a 0-100 mM NaCl gradient in buffer A containing 0.02% Triton X-100. The purified kinase is stable at 4° C. for several months. For these studies the βAR kinase preparations were >75% pure.
Rod outer segments were prepared from bovine retinas by stepwise sucrose gradient centrifugation (Wilden et al Biochemistry (1982) 21:3014-3022). Rhodopsin kinase-free rod outer segments were prepared by treatment with 5 M urea (Shichi et al J. Biol. Chem. (1978) 253:7040-7046) and consisted of ˜95% rhodopsin, as assessed by Coomassie Blue staining of sodium dodecyl sulfate-polyacrylamide gels.
Urea-treated rod outer segments were phosphorylated with βAR kinase as follows. Urea-treated rod outer segments (˜4 μg of rhodopsin) were incubated with βAR kinase (˜0.1 μg) for 10-15 min at 30° C. in the presence of 40 mM Tris-HCl, pH 7.4, 10 mM NaCl, 5 mM MgCl2, 1.5 mM EDTA, and 65 μM ATP (˜1 cpm/fmol) (total reaction volume was 40 μl). Reactions were stopped by the addition of 40 μl of sodium dodecyl sulfate sample buffer (see below) followed by sodium dodecyl sulfate-polyacrylamide gel electrophoresis. After autoradiography, the phosphorylated rhodopsin bands were excised and counted.
Sodium dodecyl sulfate-polyacrylamide gel electrophoresis was performed by the method of Laemmli (Nature (1970) 227:680-685) using 10% homogeneous polyacrylamide slab gels. Sample buffer contained 8% sodium dodecyl sulfate, 10% glycerol, 5% 3-mercaptoethanol, 25 mM Tris-HCl, pH 6.5, and 0.003% bromphenol blue. After electrophoresis, gels were dried with a Bio-Rad gel dryer prior to autoradiography.

Assay [2] concerns the target T1, βAR kinase. Briefly: Phosphorylation of purified reconstituted β2ARs by purified βAR kinase (Example II). The class given is biochemical, bovine. To be noted: for IC50: 50 μM (−)-isoproterenol, read-out: IC50, inhibition of phosphorylation of reconstituted β2ARs by βAR kinase.
Assay [3] deals with T1, βAR kinase. In words: Phosphorylation of rhodopsin (urea-treated rod outer segments) by βAR kinase. Format: biochemical, bovine. The source holds these as a separate data set.
For a further assay, the system named is permeabilized A431 cells. In words: Accumulation of [32P]cAMP in permeabilized cells. The class given is cell-based, human. To be noted: up to 1 μM; presence or absence of isoproterenol.
Assay [4] concerns the target T1, βAR kinase. In words: βAR kinase inhibition with the βAR as substrate (Example I, data not shown). The class given is biochemical, bovine. The source says:
βAR kinase phosphorylates the β2AR, the α2-adrenergic receptor, and rhodopsin in a stimulus-dependent fashion. Rhodopsin was utilized as the substrate in these experiments because of its ease of isolation. However, the inhibitory effects of polyanions observed with βAR kinase-catalyzed phosphorylation of rhodopsin have also been observed using reconstituted β2AR as the substrate.

Assay [5] relates to β2ARs in intact A431 cells. Briefly: Desensitization of β2ARs in intact A431 cells. Format: cell-based, human. To be noted: data not shown.

Turning to heparin, the “Hill coefficient of inhibition” value on βAR kinase [1] (data of FIG. 1) is ~2. Also, the IC50 was 150 nM on βAR kinase [1] (read-out: IC50 (concentration of compound which gave 50% inhibition of βAR kinase), rhodopsin as substrate); 6.1 ± 2 nM on βAR kinase [2] (listed as heparin); 6 nM on βAR kinase [2]; ~30 nM on βAR kinase [4]. Also, at βAR kinase [1] (rhodopsin as substrate, mean ± S.E.), the “IC50 (concentration of compound which gave 50% inhibition of βAR kinase)” value was determined as 0.77 ± 0.10 µg/mL. The “Inhibition of βAR kinase, %” value at βAR kinase [2] (0.1 μM) turned out to be 96 ± 1%. The “extent of inhibition of β2AR phosphorylation” value at βAR kinase [2] (at 30-100 nM) was “almost complete inhibition”. In addition, on βAR kinase [3] (ATP 33 to 100 μM), the “type of inhibition with respect to ATP” value is recorded as “mixed type inhibitor”. Besides, the “type of inhibition with respect to rhodopsin” value at βAR kinase [3] (rhodopsin 3 to 20 μM) is recorded as “competitive inhibitor”. The “effect on [32P]cAMP formation” value with permeabilized A431 cells is given as “did not reduce”. Moreover, the “effect on desensitization in intact cells” value in assay [5] is on record as “Neither compound affected desensitization”.
